Data on one compound can be found in article PMC4728427, “Mechanism of allosteric activation of TMEM16A/ANO1 channels by a commonly used chloride channel blocker” (British Journal of Pharmacology, 2016).

Like-named read-outs stand apart in the source and are kept apart here.

The assay deals with T1, Mouse TMEM16A (Mus musculus, UniProt Q8BHY3).
T1 construct: expressed in transfected cells; host or cells: HEK-293T
T1 sequence (Q8BHY3 1-960): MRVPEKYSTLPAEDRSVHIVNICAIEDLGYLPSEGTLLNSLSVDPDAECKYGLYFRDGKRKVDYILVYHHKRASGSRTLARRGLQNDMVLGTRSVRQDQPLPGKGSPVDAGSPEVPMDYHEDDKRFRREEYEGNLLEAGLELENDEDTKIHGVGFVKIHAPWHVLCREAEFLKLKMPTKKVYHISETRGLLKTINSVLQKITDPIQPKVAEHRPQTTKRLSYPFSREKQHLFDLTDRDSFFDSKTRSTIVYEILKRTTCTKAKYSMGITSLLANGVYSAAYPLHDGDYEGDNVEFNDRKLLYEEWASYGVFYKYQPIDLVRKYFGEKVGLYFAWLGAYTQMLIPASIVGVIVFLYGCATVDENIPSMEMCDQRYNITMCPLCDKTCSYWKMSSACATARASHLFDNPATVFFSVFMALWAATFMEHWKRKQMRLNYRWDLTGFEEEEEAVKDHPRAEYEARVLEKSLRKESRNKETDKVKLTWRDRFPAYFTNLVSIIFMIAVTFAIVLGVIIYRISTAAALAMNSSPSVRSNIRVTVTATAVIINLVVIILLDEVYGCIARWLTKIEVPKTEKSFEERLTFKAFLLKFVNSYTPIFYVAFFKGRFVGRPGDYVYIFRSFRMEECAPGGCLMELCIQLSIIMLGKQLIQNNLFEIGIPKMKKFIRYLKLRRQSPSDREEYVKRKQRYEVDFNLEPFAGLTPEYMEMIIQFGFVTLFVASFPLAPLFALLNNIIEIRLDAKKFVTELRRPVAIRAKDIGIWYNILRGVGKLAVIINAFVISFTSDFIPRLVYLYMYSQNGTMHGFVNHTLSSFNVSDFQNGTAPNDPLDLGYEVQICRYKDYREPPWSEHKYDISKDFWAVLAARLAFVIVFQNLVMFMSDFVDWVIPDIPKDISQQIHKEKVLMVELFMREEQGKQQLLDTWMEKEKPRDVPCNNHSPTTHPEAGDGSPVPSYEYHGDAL
Briefly: Time-course of current block analysed by Langmuir formalism (kon, koff), 12.5 μM [Ca2+]i. The assay is classed as cell-based. As to conditions: for Ki: read-out: Ki calculated as koff/kon. On the procedure: To investigate the precise mechanism by which extracellular A9C inhibits TMEM16A channels, macroscopic whole‐cell currents were recorded in the presence of 12.5 μM [Ca^2+]i and in response to 250 ms steps to various V m test pulse from a holding V m of −70 mV. The negative holding V m was used to prevent channel block before the test pulse was elicited. […] The time‐course of this decrease was described by a single‐exponential function characterized by a time constant τ B. The extent of the decrease in current was measured for various [A9C]ext and various V m test pulse and then plotted relative to the current measured in the absence of A9C (I 0) (Figure 3B). The γ values were close to 1 at each V m. In contrast, K i decreased as the V m was increased (Figure 3C). […] Thus, A9C appeared to block TMEM16A channels according to a Woodhull mechanism, consistent with a single A9C molecule blocking the channel pore.
The K i at various V m can also be estimated from analysis of the time‐course of current inhibition at various V m (see Supporting Information for details). K i estimated from this analysis were plotted against the V m in Figure 3C (open symbols). It is clear that K i estimated in this way is similar to the K i estimated from the Hill fit of the dose–response curves (filled symbols). […]
SUPPLEMENTARY INFORMATION
TMEM16A currents were measured with the whole-cell or inside-out configuration of
the patch-clamp technique using an Axon 200B amplifier (Molecular Devices, USA)
controlled with GE-pulse software (http://users.ge.ibf.cnr.it/pusch/programs-mik.htm).
Currents were filtered at 2-5 kHz and sampled at 10 kHz, unless stated otherwise.
Pipettes were prepared from borosilicate glass capillary tubes (Harvard Apparatus,
USA) using a Narishige PC-10 pipette puller (Narishige, Japan). Pipette tip diameter
yielded a resistance of 2.2 to 2.8 MΩ in the working solutions. The bath was grounded
through a 3 M KCl agar bridge connected to a Ag-AgCl reference electrode. In whole-
cell recordings, the series resistance was usually compensated by ≥70 % to achieve a
maximal effective series resistance generally lower than ~5 MΩ. To allow for
equilibration of the pipette solution with the cell interior, recordings started 5 min after
establishing the whole-cell configuration (Manoury, Tamuleviciute & Tammaro, 2010).
Experiments were conducted at 20-22 °C. The cell capacitance was assessed by
measuring the area beneath a capacitive transient elicited by a 10 mV step or via the
cell capacity compensation circuit of the amplifier.
Estimation of Ki at various Vm using the Langmuir formalism
Detailed kinetic analysis of TMEM16A channel activity is likely to require complex
models to account for the effects of Ca2+ and voltage on channel gating (Hartzell,
Putzier & Arreola, 2005). However, a simplified two-state kinetic scheme may be
applicable in conditions in which high [Ca2+]i is maintained to maximally activate the
TMEM16A channel. Under these conditions, and assuming that a molecule of A9C
binding into the pore of a TMEM16A channel results in the complete block of Cl- fluxes,
the Langmuir formalism applies:
Where O represents the conductive state and OB(A9C) is the A9C-blocked state. kon and
koff are the association and dissociation constant, respectively and Ki = koff/kon is the
apparent equilibrium dissociation constant.
The scheme (I) refers to the following differential equations: […]
(1 picture or pasted object on this page, not shown here)
Where O and OB(A9C) describe the probability of being open (unliganded) or blocked,
Thus, in the presence of a fixed [A9C]ext, when the Vm is stepped to a defined test-pulse
Where O∞ is the value of O(t) at the steady state and O(0) is the value of O(t) at the
beginning of the test pulse while τB is the time constant.
fitted with supplementary equation 3 and the resulting τB-1 plotted versus [A9C]ext
(Suppl. Fig.2). Supplementary equation 5 was used to fit the τB-1 obtained at a given Vm, […]

The term koff denotes the rate constant with which the complex falls apart. A lower koff goes with slow dissociation. For `O=C(O)c1c2ccccc2cc2ccccc12` [A9C, Anthracene‐9‐carboxylic acid], the koff runs as follows: (Vm 20 mV) 94 ± 5 s⁻¹; (Vm 40 mV) 71 ± 9 s⁻¹; (Vm 60 mV) 49 ± 13 s⁻¹; (Vm 80 mV) 34 ± 9 s⁻¹; (Vm 100 mV) 12 ± 25 s⁻¹; (Vm 120 mV) 21 ± 17 s⁻¹. In addition, the Ki was 168 µM (Vm 20 mV); 104 µM (Vm 40 mV); 62 µM (Vm 60 mV); 38 µM (Vm 80 mV); 12 µM (Vm 100 mV); 19 µM (Vm 120 mV).
